Data set [1] concerns Phoenix Eco cells.
For data set [2] the following is noted: estimated; 5 µM oligomer, 37°C, DMEM/10% FBS; denaturing gel, densitometry.
The test system of data set [3] is Phoenix Eco cells. Kind of data set: Cellular uptake of fluorescein-labeled oligomers. In kind it is cell-based.
Data set [4] has as its system Phoenix Eco cells. Kind of data set: Live-cell confocal microscopy, intracellular localization. Type of data set: cell-based.

For `CCN(CC)CCCC(C)Nc1ccnc2cc(Cl)ccc12` (centres unmarked) [chloroquine], in data set [1], the cell viability was 80–85%.
Usually half-life stands for the time needed for the level to fall by half in the phase considered. As for “pHypNA TCACTCAACACTCAC-Flu: fluorescein-labeled trans-L pHypNA oligomer, sequence TCACTCAACACTCAC-Flu (pHypNA backbone; fluorescein)”, in data set [2], the half-life is around 72 h. Further, in data set [3] (in the presence of LFA), the “time of maximum uptake” value lay in the range of 20 to 24 h. Also, the “fluorescence in treated cells (in words)” value in data set [3] (in the presence of Lipofectamine-2000 (LFA), oligomer or its duplex with CT-ODN, after 4 h already) was “high level of fluorescence”. Moreover, in data set [4], the “intracellular distribution (in words)” value is on record as “evenly distributed in the cytoplasm with preferential staining of the nucleus”.
